According to PubChem BioAssay (NCI):
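The compound was tested at five concentrations on cells cultured in 96-well plates, with a 48-hour exposure period. The concentration for 50% growth inhibition is given as GI50. TGI denotes the concentration required for complete inhibition of growth.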

Columns and labels:
Assay in all cases: inhibition of tumour cell growth, NCI panel, 48 h
MOLT-4 leukemia = test system: MOLT-4 leukemia
SK-MEL-2 melanoma = test system: SK-MEL-2 melanoma
SK-MEL-5 melanoma = test system: SK-MEL-5 melanoma
IGROV1 ovarian = test system: IGROV1 ovarian
SK-OV-3 ovarian = test system: SK-OV-3 ovarian
OVCAR-4 ovarian = test system: OVCAR-4 ovarian
OVCAR-5 ovarian = test system: OVCAR-5 ovarian
HCC-2998 colon = test system: HCC-2998 colon
K-562 leukemia = test system: K-562 leukemia
NCI-H522 lung = test system: NCI-H522 lung
NCI-H226 lung = test system: NCI-H226 lung
TK-10 renal = test system: TK-10 renal
BT-549 breast = test system: BT-549 breast
CAKI-1 renal = test system: CAKI-1 renal
COLO 205 colon = test system: COLO 205 colon
CCRF-CEM leukemia = test system: CCRF-CEM leukemia
SF-539 CNS = test system: SF-539 CNS
RPMI-8226 leukemia = test system: RPMI-8226 leukemia
UACC-257 melanoma = test system: UACC-257 melanoma
MDA-MB-468 breast = test system: MDA-MB-468 breast
MALME-3M melanoma = test system: MALME-3M melanoma
786-0 renal = test system: 786-0 renal
MDA-MB-435 = test system: MDA-MB-435
OVCAR-3 ovarian = test system: OVCAR-3 ovarian
MDA-MB-231 breast = test system: MDA-MB-231 breast
SNB-75 CNS = test system: SNB-75 CNS
NCI-H23 lung = test system: NCI-H23 lung
UACC-62 melanoma = test system: UACC-62 melanoma
ACHN renal = test system: ACHN renal
SN12C renal = test system: SN12C renal
HCT-15 colon = test system: HCT-15 colon
EKVX NSCLC = test system: EKVX NSCLC
PC-3 prostate = test system: PC-3 prostate
A498 renal = test system: A498 renal
M14 melanoma = test system: M14 melanoma
UO-31 renal = test system: UO-31 renal
KM12 colon = test system: KM12 colon
HOP-92 NSCLC = test system: HOP-92 NSCLC
SR leukemia = test system: SR leukemia
SK-MEL-28 melanoma = test system: SK-MEL-28 melanoma
SNB-19 CNS = test system: SNB-19 CNS
DU-145 prostate = test system: DU-145 prostate
HL-60(TB) leukemia = test system: HL-60(TB) leukemia

`N[C@@H](CSSC[C@H](N)C(=O)Nc1ccc(OCC2CCCC2)cc1)C(=O)Nc1ccc(OCC2CCCC2)cc1` gave a GI50 (MOLT-4 leukemia) of 223 nM, a TGI (MOLT-4 leukemia) of 501 nM and a GI50 (SK-MEL-2 melanoma) of 1700 nM. It also gave a TGI (SK-MEL-2 melanoma) of 3.17 µM, a GI50 (SK-MEL-5 melanoma) of 871 nM and a TGI (SK-MEL-5 melanoma) of 2130 nM. It also gave a GI50 (IGROV1 ovarian) of 292 nM, a TGI (IGROV1 ovarian) of 823 nM and a GI50 (SK-OV-3 ovarian) of 570 nM. It also gave a TGI (SK-OV-3 ovarian) of 1730 nM, a GI50 (OVCAR-4 ovarian) of 389 nM and a TGI (OVCAR-4 ovarian) of 1650 nM. The GI50 (OVCAR-5 ovarian) was 1140 nM, the TGI (OVCAR-5 ovarian) was 2380 nM and the GI50 (HCC-2998 colon) was 278 nM. The TGI (HCC-2998 colon) was 793 nM, the GI50 (K-562 leukemia) was 194 nM and the TGI (K-562 leukemia) was 434 nM. It also gave a GI50 (NCI-H522 lung) of 1510 nM, a TGI (NCI-H522 lung) of 3.03 µM and a GI50 (NCI-H226 lung) of 1720 nM. The TGI (NCI-H226 lung) was 3.4 µM, the GI50 (TK-10 renal) was 1760 nM and the TGI (TK-10 renal) was 3.23 µM. For the same compound, the GI50 (BT-549 breast) was 1460 nM, the TGI (BT-549 breast) was 3.03 µM and the GI50 (CAKI-1 renal) was 677 nM. For the same compound, the TGI (CAKI-1 renal) was 1900 nM, the GI50 (COLO 205 colon) was 3.23 µM and the TGI (COLO 205 colon) was 12 µM. It also gave a GI50 (CCRF-CEM leukemia) of 170 nM, a TGI (CCRF-CEM leukemia) of 374 nM and a GI50 (SF-539 CNS) of 461 nM. It also gave a TGI (SF-539 CNS) of 1520 nM, a GI50 (RPMI-8226 leukemia) of 738 nM and a TGI (RPMI-8226 leukemia) of 2430 nM. It also gave a GI50 (UACC-257 melanoma) of 1740 nM, a TGI (UACC-257 melanoma) of 3.46 µM and a GI50 (MDA-MB-468 breast) of 539 nM. It also gave a TGI (MDA-MB-468 breast) of 1390 nM, a GI50 (MALME-3M melanoma) of 6.71 µM and a TGI (MALME-3M melanoma) of 19.6 µM. The GI50 (786-0 renal) was 1640 nM, the TGI (786-0 renal) was 3.1 µM and the GI50 (MDA-MB-435) was 163 nM. It also gave a TGI (MDA-MB-435) of 340 nM, a GI50 (OVCAR-3 ovarian) of 765 nM and a TGI (OVCAR-3 ovarian) of 2090 nM. It also gave a GI50 (MDA-MB-231 breast) of 202 nM, a TGI (MDA-MB-231 breast) of 422 nM and a GI50 (SNB-75 CNS) of 192 nM. It also gave a TGI (SNB-75 CNS) of 450 nM, a GI50 (NCI-H23 lung) of 408 nM and a TGI (NCI-H23 lung) of 1510 nM. For the same compound, the GI50 (UACC-62 melanoma) was 612 nM, the TGI (UACC-62 melanoma) was 1380 nM and the GI50 (ACHN renal) was 423 nM. It also gave a TGI (ACHN renal) of 1490 nM, a GI50 (SN12C renal) of 460 nM and a TGI (SN12C renal) of 960 nM. It also gave a GI50 (HCT-15 colon) of 230 nM, a TGI (HCT-15 colon) of 604 nM and a GI50 (EKVX NSCLC) of 427 nM. It also gave a TGI (EKVX NSCLC) of 1540 nM, a GI50 (PC-3 prostate) of 222 nM and a TGI (PC-3 prostate) of 530 nM. For the same compound, the GI50 (A498 renal) was 7.15 µM, the TGI (A498 renal) was 20.1 µM and the GI50 (M14 melanoma) was 178 nM. It also gave a TGI (M14 melanoma) of 344 nM, a GI50 (UO-31 renal) of 716 nM and a TGI (UO-31 renal) of 2020 nM. It also gave a GI50 (KM12 colon) of 182 nM, a TGI (KM12 colon) of 364 nM and a GI50 (HOP-92 NSCLC) of 1740 nM. It also gave a TGI (HOP-92 NSCLC) of 3.43 µM, a GI50 (SR leukemia) of 214 nM and a TGI (SR leukemia) of 584 nM. The GI50 (SK-MEL-28 melanoma) was 1260 nM, the TGI (SK-MEL-28 melanoma) was 2550 nM and the GI50 (SNB-19 CNS) was 545 nM. The TGI (SNB-19 CNS) was 1190 nM, the GI50 (DU-145 prostate) was 339 nM and the TGI (DU-145 prostate) was 1150 nM. For the same compound, the GI50 (HL-60(TB) leukemia) was 228 nM and the TGI (HL-60(TB) leukemia) was 777 nM.
